The nature of this assay: Compound was tested for inhibition of [3H]dihydroalprenolol radioligand binding to Beta-1 adrenergic receptor in dog heart.

The structures appear in SMILES notation.

From BindingDB's records for doi:10.1021/jm00350a009 (1982) come the findings set out here.

Usually IC50 stands for the midpoint of a concentration-inhibition curve. The low end stands for inhibition by little substance, the high end for a need for much substance. As for `CC(C)(C)NC[C@H](O)CON=C1c2ccccc2-c2ccccc21`, the IC50 is 29 nM.

Take `CC(C)(C)NC[C@@H](O)CON=C1c2ccccc2-c2ccccc21`: the IC50 worked out at 43 nM.

Consider `CC(C)(C)NCC(O)CON=C1c2ccccc2-c2ccccc21` (centres undefined) [Fluoren-9-one O-(3-tert-butylamino-2-hydroxy-propyl)-oxime], for which the IC50 stood at 38 nM. This IC50 and that of the compound before are within 1.5-fold of each other.

As to `Cc1ccc(OCC(O)CNC(C)C)c2c1CCC2` (centres undefined) [1-Isopropylamino-3-(7-methyl-indan-4-yloxy)-propan-2-ol], the half-inhibitory concentration (IC50) is 186 nM.
